The values below come from PubChem BioAssay (NCI).

“And” between values parts separate entries of the source, which are not always exact repeats. Equal entries are not always repeated.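 Grown in 96-well plates, cells were treated for 48 hours with each compound at five concentrations. Insufficient inhibition: endpoint recorded as highest concentration tested. The concentration for 50% growth inhibition is given as GI50. TGI: total growth inhibition.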 Some results are limits rather than exact numbers.

Among the test systems are OVCAR-5 ovarian; OVCAR-4 ovarian; ACHN renal; HCC-2998 colon; SN12C renal; NCI/ADR-RES ovarian; PC-3 prostate; SK-MEL-28 melanoma.
Holding throughout (assay): inhibition of tumour cell growth, NCI panel, 48 h

Take `CC(C)(C)C#COC(=O)c1ccccc1`: the TGI with OVCAR-5 ovarian, in the test on OVCAR-4 ovarian, in the test on ACHN renal, in the test on HCC-2998 colon and in the test with SN12C renal was above 100 µM each time.
`COc1ccc(-c2ccc(C3CC(c4ccccc4)=NN3)o2)c([N+](=O)[O-])c1` (configuration not stated): the GI50 in the test with NCI/ADR-RES ovarian was 33.9 µM; with OVCAR-5 ovarian, above 100 µM; in the test with PC-3 prostate it was 37.3 µM; in the test with OVCAR-4 ovarian, 43.5 µM; in the test on ACHN renal it was 57.7 µM; in the test on SK-MEL-28 melanoma it was above 100 µM. The values for the GI50 in the test on HCC-2998 colon and with SN12C renal were 25.5 µM and 56.4 µM, respectively. Also, the TGI with NCI/ADR-RES ovarian, in the test on OVCAR-5 ovarian, in the test with PC-3 prostate, with OVCAR-4 ovarian, in the test with ACHN renal and in the test on SK-MEL-28 melanoma was above 100 µM in each case. Moreover, the figures for the TGI in the test with HCC-2998 colon and in the test on SN12C renal were 58.5 µM and above 100 µM, respectively.
For the compound `N=C1CCCC1C(=S)SCCC(N)=O` (configuration not stated), the TGI with NCI/ADR-RES ovarian, in the test on OVCAR-5 ovarian, in the test with PC-3 prostate, in the test on OVCAR-4 ovarian, in the test with ACHN renal and in the test with SK-MEL-28 melanoma was above 100 µM throughout. The TGI in the test with HCC-2998 colon and in the test on SN12C renal was above 100 µM in each case.
Take `O=C1c2cccc3cccc(c23)C(=O)N1CCCCCN1CCN(CCN=c2cc3n(-c4ccc(Cl)cc4)c4ccccc4nc-3cc2Nc2ccc(Cl)cc2)CC1`: the GI50 in the test with NCI/ADR-RES ovarian is 6.95 µM; in the test with OVCAR-5 ovarian it was 10.2 µM; with PC-3 prostate, 6.36 µM; in the test with OVCAR-4 ovarian, 6.22 µM; with ACHN renal, 2.88 µM; in the test on SK-MEL-28 melanoma it was 18.9 µM. For the same compound, the GI50 with HCC-2998 colon is 8.93 µM; with SN12C renal it was 10.4 µM. Further, the TGI in the test with NCI/ADR-RES ovarian was 19.4 µM; in the test with OVCAR-5 ovarian, 20.1 µM; in the test on PC-3 prostate, 28.4 µM; in the test on OVCAR-4 ovarian it was 17.3 µM; in the test with ACHN renal, above 50 µM; in the test on SK-MEL-28 melanoma, above 50 µM. The results for the TGI with HCC-2998 colon and in the test with SN12C renal were 31.4 µM and 26.4 µM, respectively.
In the case of `CCOC(=O)c1cc(-c2ccc(OC)cc2)c([N+](=O)[O-])[nH]1`, the TGI with OVCAR-5 ovarian, with PC-3 prostate, with OVCAR-4 ovarian, with ACHN renal, in the test on SK-MEL-28 melanoma and with HCC-2998 colon was above 10 µM in each case. The TGI in the test on SN12C renal was above 10 µM.
On to `C/C(=N/NC(=S)Nc1ccccc1)c1nc2ccc(Cl)cc2[nH]1`, for which the GI50 with PC-3 prostate is 0.236 µM; with OVCAR-4 ovarian, 0.0466 µM; in the test with SK-MEL-28 melanoma, 0.18 µM; with HCC-2998 colon it was 0.135 µM. Further, the TGI in the test on PC-3 prostate is 2.23 µM; in the test on OVCAR-4 ovarian, 2.42 µM; in the test on SK-MEL-28 melanoma it was 0.872 µM; in the test on HCC-2998 colon, 0.725 µM.
As for `Nc1cc2c3c(cccc3c1)C(=O)N(CCN1CCCC1)C2=O`, the GI50 is 3.62 µM in the test with NCI/ADR-RES ovarian; 4.73 µM in the test with OVCAR-5 ovarian; 3.89 µM in the test on PC-3 prostate; 4.75 µM in the test on OVCAR-4 ovarian; 4.28 µM in the test with SK-MEL-28 melanoma; 2.78 µM with HCC-2998 colon. Further, the GI50 with SN12C renal is 2.73 µM. For the same compound, the TGI was above 51.4 µM with NCI/ADR-RES ovarian; above 57.6 µM in the test with OVCAR-5 ovarian; above 66.6 µM in the test with PC-3 prostate; 42.5 µM with OVCAR-4 ovarian; 18.2 µM in the test with SK-MEL-28 melanoma; 15 µM in the test on HCC-2998 colon. This compound had a TGI with SN12C renal above 84.8 µM.
With `O=c1c(-c2ccc3c(c2)OCO3)coc2c3c(ccc12)OCO3`, the TGI in the test on OVCAR-5 ovarian was above 100 µM; in the test with PC-3 prostate, above 100 µM; in the test with OVCAR-4 ovarian it was 70.6 µM; with ACHN renal, 38.8 µM; in the test with SK-MEL-28 melanoma it was above 100 µM; with HCC-2998 colon, above 100 µM. The TGI in the test with SN12C renal is above 100 µM.
In the case of `O=C(Nc1sc2c(c1C(=O)O)CCCC2)c1ccco1`, the GI50 in the test on PC-3 prostate was 45.9 µM; in the test on ACHN renal, 14.1 µM; with SK-MEL-28 melanoma, above 50 µM; with SN12C renal, 8.63 µM. The TGI with PC-3 prostate was above 50 µM; in the test with ACHN renal, above 50 µM; with SK-MEL-28 melanoma it was above 50 µM; with SN12C renal, 42 µM.
Consider `CC(C)Cc1cnc(CC(C)C)c(=O)[nH]1`, for which the TGI in the test with OVCAR-5 ovarian, with PC-3 prostate, with OVCAR-4 ovarian, in the test with ACHN renal, in the test with SK-MEL-28 melanoma and in the test on HCC-2998 colon was above 100 µM in each case. The compound further had a TGI in the test with SN12C renal above 100 µM.
Consider `CCOc1c(Br)cc(Br)cc1C=C(C#N)C#N`, for which the TGI with NCI/ADR-RES ovarian is 4.98 µM; in the test with PC-3 prostate, above 10 µM; in the test on OVCAR-4 ovarian, above 10 µM; in the test with ACHN renal it was above 10 µM; with SK-MEL-28 melanoma, above 10 µM; in the test on HCC-2998 colon, above 10 µM. Also, in the test on SN12C renal, the TGI is above 10 µM.
Take `CCCC(=O)O[C@]1(C)CC[C@@H]2[C@H]3[C@@H]1[C@@H]1C[C@@](C)(O)[C@H](OC)CC[C@](C)(OC(=O)[C@@H]2C)[C@H]3O1`: the GI50 in the test with NCI/ADR-RES ovarian was 67.1 µM; with OVCAR-5 ovarian, 58.9 µM; in the test on OVCAR-4 ovarian, 22.1 µM; in the test on ACHN renal it was 35.8 µM; in the test with SK-MEL-28 melanoma, 19.9 µM; in the test on HCC-2998 colon, 17.5 µM. The GI50 in the test on SN12C renal is 24.8 µM. The TGI is above 100 µM with NCI/ADR-RES ovarian; above 100 µM in the test with OVCAR-5 ovarian; 50 µM with OVCAR-4 ovarian; above 100 µM with ACHN renal; 35 µM in the test with SK-MEL-28 melanoma; 31.2 µM in the test on HCC-2998 colon. Moreover, in the test with SN12C renal, the TGI came out at 59.5 µM.
As to `OCC(O)C(O)C(O)C(/C=N\Nc1ncnc2c(Br)cc(Br)cc12)=N/Nc1ncnc2c(Br)cc(Br)cc12` (configuration not stated), the GI50 was 5.83 µM and 41.2 µM in the test on OVCAR-5 ovarian; 5.09 µM and 24.8 µM in the test on SN12C renal. Further, the TGI with OVCAR-5 ovarian is 46.1 µM and > 100 µM; with PC-3 prostate, 13 µM and > 100 µM; with ACHN renal, 33 µM and > 100 µM; in the test on SN12C renal, 18.8 µM and > 100 µM.
Consider `COc1cc2c(/C=C3\C(=O)Nc4ccccc43)c[nH]c2cc1C`, for which the GI50 was below 0.01 µM in the test with NCI/ADR-RES ovarian; 0.62 µM in the test on OVCAR-5 ovarian; 0.213 µM with PC-3 prostate; 1.64 µM with ACHN renal; 0.021 µM in the test with SK-MEL-28 melanoma; below 0.0179 µM in the test on HCC-2998 colon. In addition, the GI50 in the test with SN12C renal was 0.275 µM. The TGI with NCI/ADR-RES ovarian is 0.0736 µM; in the test on OVCAR-5 ovarian, 19.1 µM; in the test on PC-3 prostate it was 13.2 µM; in the test with ACHN renal it was 4.51 µM; in the test on SK-MEL-28 melanoma, 20.3 µM; in the test with HCC-2998 colon it was 0.167 µM. The compound further displayed a TGI in the test with SN12C renal of 1.39 µM.
